Results taken from patent US20150250769A1, “METHODS AND COMPOSITIONS FOR INHIBITING RHO/MRTF-MEDIATED DISEASES AND CONDITIONS” (THE REGENTS OF THE UNIVERSITY OF MICHIGAN, priority 2014, published 2015).
“Also recorded” adds a separate entry of the source.

How the values were obtained:
[1] = tested on: Rho (MRTF/SRF-regulated gene transcription, SRE-Luciferase); assay: SRE-Luciferase reporter, Rho inhibition; assay type: cell-based
Experimental: In the course of these studies, the rho transcription reporter method that uses the rho-specific SRE-Luciferase was developed. This transcriptional reporter method, described in detail therein, was used for screening a small chemical library for possible rho inhibitors (Evelyn et al., Mol Canc. Ther. 6:2249-60, 2007; herein incorporated by reference in its entirety). Additional inhibitors were identified as described below.
CCG-1423 was a cellular IC50 of ˜1 uM to inhibit SRE-Luciferase expression (Evelyn, C. R., Wade, S. M., Wang, Q., Wu, M., Iniguez-Lluhi, J. A., Merajver, S. D., and Neubig, R. R. 2007. CCG-1423: a small-molecule inhibitor of RhoA transcriptional signaling. Mol Cancer Ther 6:2249-2260). It has been used in many labs as a tool compound for blocking MRTF/SRF-regulated gene transcription (Sandbo et al., et al., 2011. Am J Physiol Lung Cell Mol Physiol 301:L656-666; Sandbo, et al., 2009. Am J Respir Cell Mol Biol 41:332-338; Evelyn, et al., 2007. Mol Cancer Ther 6:2249-2260; Sandbo et al., 2013. J Biol Chem 288:15466-15473; Prencipe et al., 2013. Prostate 73:743-753; Sakai et al., 2013. FASEB J 27:1830-1846; Buller et al., 2012. Glia 60:1906-1914; Chong et al., 2012. PLoS One 7:e40966; Jin et al., 2011. J Clin Invest 121:918-929; Mae et al., 2010. Biochem Biophys Res Commun 393:877-882; Evelyn et al., 2010. Bioorg Med Chem Lett 20:665-672; Lu et al., 2009. Curr Med Chem 16:1355-1365). CCG-1423 acts by preventing nuclear accumulation of MRTF (Evelyn et al, supra; Jin et al., supra).

Acute cellular toxicity = assay type: cell-based; conditions: FIG. 2B; compared with CCG-1423
[2] = In vivo tolerability (general statement); conditions: compared with CCG-1423
[3] = tested on: COL1A2 and ACTA2 (αSMA) mRNA; assay: LPA-induced COL1A2 and ACTA2 mRNA in NIH-3T3 cells; assay type: cell-based
Description: (§1) A & B) CCG-203971 inhibits LPA-induced COL1A2 and ACTA2 (αSMA) mRNA in NIH-3T3 cells.

skin fibrosis = assay: Bleomycin skin injury (dermal fibrosis) model; assay type: in vivo; conditions: mouse; 100 mg/kg
Description: Mice are weighed once prior to study start. Dermal fibrosis is induced in Groups 2-5 by daily intradermal injections of bleomycin over 14 days. Group 1 will receive vehicle 1 (PBS) over the same days. Daily therapeutic dosing with either vehicle 2 or CCG-58150 by oral gavage coincide with the intradermal injection study days. Mice are anesthetized using isoflurane during intradermal injections. The back is shaved and the injection site ( 1 cm2) cleaned with three alternating passes of chlorhexidine and warm, sterile saline or water. The periphery of the injection site is circled using a […] marker as a visual aid. Bleomycin is dissolved in sterile PBS at a concentration of 1 mg/ml, sterile filtered, and frozen in aliquots appropriately sized for the daily injections prior to the start of the dosing period. 100 μl of bleomycin or PBS (Vehicle 1) is administered to anesthetized mice by intradermal injection using a 0.5 cc TB syringe with a 27 G needle. Following bleomycin or vehicle administration, test substance (CCG-58150) or vehicle 2 (20% DMSO/30% PEG/50% PBS) is administered by oral gavage at 10 μL/gram of body weight. […] Images are collected on an Evos microscope and skin thickness and intensity of fibrosis of two distinct images from each animal is analyzed using ImageJ. […]

human dermal fibroblasts = assay: Myofibroblast differentiation / αSMA staining in dermal fibroblasts (TGFβ-induced normal, SSc); assay type: cell-based; conditions: for myofibroblast differentiation / phenotype (αSMA): in vitro, TGFβ-stimulated normal human dermal fibroblasts and SSc fibroblasts; for potency to reduce alpha-SMA staining, human primary dermal fibroblasts: 72-hour assay
Experimental: B-D) Human dermal fibroblasts were treated with TGFβ (10 ng/ml) for 3 days with various concentrations of CCG-58150.
as §1

cellular migration = assay: Cellular migration; assay type: cell-based; conditions: FIG. 5
[4] = Stability in liver microsomes; assay type: in vitro ADME
[5] = Preliminary tolerability study in normal mice; assay type: in vivo; conditions: 10 mg/kg i.p. daily for 2-weeks
Experimental: The experiments shown in FIG. 4 are repeated CCG-58150 and derivatives thereof. A range of doses (0.1, 1, and 10 mg/kg) is used to increase the likelihood of finding a well-tolerated dose that is effective.

CTGF mRNA = CTGF mRNA by qRT-PCR in LPA-stimulated NIH3T3 cells; assay type: cell-based
[6] = tested on: Rho (MRTF/SRF-regulated gene transcription, SRE-Luciferase); conditions: Evelyn et al. 2007; cited from earlier work
peritoneal fibrosis = conditions: Sakai et al. 2013; cited from earlier work

SMILES	IC50 [1]	also measured
O=C(O)CCSc1nc2ccccc2n1Cc1ccccc1 [compound 111085]	> 100 µM	
Cc1cccc(-c2nnc(SCC(N)=O)o2)c1 [compound 211912]	> 100 µM	
COc1ccc(-c2nnc(SCCC(=O)O)[nH]2)cc1 [compound 215104]	> 100 µM	
COC(=O)CSc1nnc(-c2ccc(C)cc2)o1 [compound 105557]	5.2 µM	
O=C(Nc1ccc(Cl)cc1)C1CCCN(C(=O)c2cccc(-c3ccco3)c2)C1 (stereo not shown) [CCG-203971]		acute cellular toxicity (Acute cellular toxicity): less acute cellular toxicity; also recorded: reduced acute cellular toxicity; tolerability in vivo [2]: much better tolerated in vivo; LPA-induced COL1A2 and ACTA2 (αSMA) mRNA [3]: inhibits; hepatic clearance (In vivo pharmacokinetics; in vivo): rapid hepatic clearance; pharmacokinetics (overall) (In vivo pharmacokinetics; in vivo): poor pharmacokinetics; oral absorption (In vivo pharmacokinetics; in vivo, po): low oral absorption; fibrosis in bleomycin skin injury model (skin fibrosis): prevented fibrosis; also recorded: very strongly significant effect; also recorded: prevents skin fibrosis; potency relative to perfenidone (human dermal fibroblasts; FIG. 4C): 100 ×; myofibroblast differentiation / phenotype (αSMA) (human dermal fibroblasts): reverses the myofibroblast phenotype; also recorded: Suppression of myofibroblast activation; cellular migration (cellular migration): inhibition of cellular migration
Cc1cccc(-c2nnc(SCCC(=O)O)o2)c1 [compound 58146]		potency in SRE-luciferase ([1]; FIG. 2C, listed as CCG-58146): nM IC50; also recorded: markedly higher potency; cellular migration (cellular migration): inhibition of cellular migration
c1ccc(-c2nnc(SCCC3OCCCO3)o2)cc1 [compound 20321]	> 100 µM	
Cc1ccc(-c2nnc(SCC(=O)O)o2)cc1 [compound 114898]	6.7 µM	
CC(C)(C)NC(=O)CSc1nnc(-c2ccc(Cl)cc2Cl)o1 [compound 215029]	> 100 µM	
O=C(O)CCSc1nnc(-c2ccncc2)o1 [compound 123867]	> 100 µM	
O=C(O)CSc1nnc(-c2ccc(Cl)cc2Cl)o1 [compound 215027]	> 100 µM	
O=C(O)CCSc1nnc(-c2ccc(Cl)cc2Cl)o1 [compound 58150]	0.004 µM	stability in liver microsomes [4]: highly favorable stability; blood levels 24 hours after a single oral dose relative to in vitro IC50 (In vivo pharmacokinetics; 24 hours, single oral dose): over 10 fold; pharmacokinetics (overall) (In vivo pharmacokinetics; in vivo): very good in vivo pharmacokinetics; tolerability [5]: tolerated; potency in a 24-hour assay in NIH 3T3 cells (CTGF mRNA; 24-hour assay): nM potency; IC50 (CTGF mRNA; Mus musculus, FIG. 3, NIH3T3 cells stimulated with LPA, read-out: IC50, inhibition of expression of endogenous CTGF mRNA): 0.001 µM; potency to reduce alpha-SMA staining, human primary dermal fibroblasts (human dermal fibroblasts; listed as CCG-58150): fM-pM; potency to reduce alpha-SMA staining, human primary dermal fibroblasts (human dermal fibroblasts; listed as CCG-518150): fM-pM potency; myofibroblast differentiation / phenotype (αSMA) (human dermal fibroblasts): αSMA inhibition; myofibroblast differentiation / phenotype (αSMA) (human dermal fibroblasts; listed as CCG-58150): blocks myofibroblast differentiation at pM concentrations; maximum suppression, inhibition of % αSMA positive cells (human dermal fibroblasts; maximum effect): 60%; cellular migration (cellular migration): inhibition of cellular migration
COc1ccc(-c2nnc(SCCC(=O)O)n2C)cc1 [compound 107983]	> 100 µM	
CC(ONC(=O)c1cc(C(F)(F)F)cc(C(F)(F)F)c1)C(=O)Nc1ccc(Cl)cc1 (stereo not shown) [CCG-1423]		reduction of SRF-mediated transcription versus ROCK inhibitors [6]: more effective than ROCK inhibitors; activity in peritoneal fibrosis model (peritoneal fibrosis): in vivo activity
COc1cc(C)ccc1-c1nnc(SCCC(=O)O)o1 [compound 215201]	0.023 µM	
O=C(O)CCOc1nnc(-c2ccc(Cl)cc2Cl)s1 [compound 215240]	24 µM	

Further lines, with some results ahead:

IC50 [1]	SMILES	also measured
10 µM	COc1cc(Cl)cc(Cl)c1-c1nnc(SCCC(=O)O)o1 [compound 222687]	
87 µM	O=C(O)CCSc1nnc(-c2cccnc2)o1 [compound 123869]	
> 100 µM	O=C(O)CCCc1nnc(-c2ccc(Cl)cc2Cl)o1 [compound 222620]	
> 100 µM	COCCNC(=O)CCSc1nnc(-c2ccc(Cl)cc2Cl)o1 [compound 215160]	
> 100 µM	O=C(O)CCSc1nc(-c2ccccc2)cc(=O)[nH]1 [compound 211914]	
> 100 µM	CCCN(CCC)C(=O)CSc1nnc(-c2cccc(C)c2)o1 [compound 211913]	
43 µM	Cc1cccc(-c2nnc(SCC(=O)O)o2)c1 [compound 123860]	
> 100 µM	Cc1occc1-c1nnc(SCCC(=O)O)o1 [compound 123873]	
0.0086 µM	COc1c(Cl)ccc(-c2nnc(SCCC(=O)O)o2)c1Cl [compound 222623]	
> 100 µM	CCOC(=O)CSc1nnc(-c2ccc(Cl)cc2Cl)o1 [compound 215028]	
6.4 µM	O=C(O)CCSc1nnc(-c2cccc(Br)c2)o1 [compound 123853]	
0.003 µM	O=C(O)CCCCSc1nnc(-c2ccc(Cl)cc2Cl)o1 [compound 232503, 5-((5-(2,4-dichlorophenyl)-1,3,4-oxadiazol-2-yl)thio)pentanoic acid]	
0.025 µM	O=C(O)CCSc1nnc(-c2ccc(F)cc2Cl)o1 [compound 232002]	
